Experiments:
T84 cells [1] = assay: 125I- efflux assay (Cl- channel activity), T84 cells; type: cell-based; settings: for potency in stimulating 125I- efflux relative to DM: equimolar concentrations
Excerpt: (§1) Forskolin or cAMP-stimulated Cl^- channel activity is a standard measurement of the activity of Cl^- channels represented by CFTR, while ionomycin or Ca^++ ionophore-stimulated Cl^- channel activity is a measure of the activity of Ca^++ -regulated Cl^- channels which arc different from those represented by CFTR. […] In contrast Ca^++ -regulated Cl^- channels operate normally in CF cells and are opened by ionomycin just as they are in T84 cells.
(§2) The cells employed were (1) T84 cells (ATCC Accession No. CCL 248) (2) CFPAC-1 cells (ATCC Accession No. CRL 1918) (a newly established continuous line of pancreatic duct adenocarcinoma cells from a CF patient which is homozygous for the deletion of phenylalanine in the 508 position of CFTR, the mutation found in 70% of CF patients), (3) clones of CFPAC-1 cells which have been transduced with a retroviral vector (PLJ) containing (PLJ-CFTR-CFPAC) or lacking (PLJ-CFPAC) cDNA for functional CFTR, and (4) 2CFSMEo-, a continuous cell line derived from the tracheal submucosal gland of a CF patient whose exact genotype is unknown but which expresses the phenotype of defective Cl^- channel permeability characteristic of CF.
(§3) In general, cells were washed with 1 ml of efflux medium (140 mM NaCl, 1 mM Ca gluconate, 1 mM Mg gluconate, 5 mM KH2 PO4, 10 mM Tris-Hepes pH 7.4) four times and incubated with ^125 I- (3μl Na ^125 I=12 μC) in 1 ml of the same medium containing 5 mM D-glucose for 1 hour at 37° C. to load the cells with ^125 I. The cells were then washed quickly five times with 1 ml of the efflux medium at 22° C. to remove any ^125 I- that had not been taken up by the cells. One ml of the efflux medium at 22° C. was then added to initiate efflux and left in contact with the cells for 1 minute, before being removed and replaced with another 1 ml of medium. This replacement procedure was carried out 2-5 times before addition of the appropriate surfactant and/or agonist in 1 ml of the same medium to one culture dish (experimental) while to another dish 1 ml of medium without surfactant and/or agonist was added (control). Medium with or without surfactant and/or agonist was replaced at 0.5 minute intervals until the 10 minute time point when the replacement time was prolonged to 1 minute intervals. The samples of the replacement media were counted in a gamma counter to determine the amount of ^125 I- effluxing from the cells into the medium in each time interval. After 15 minutes when measurement of efflux was completed the cells were extracted for 30 minutes with 1 ml 0.2N NaOH, 0.15% SDS and the extract counted to determine the residual ^125 I- remaining in the cells.
(§4) The data is expressed as ^125 I- remaining in the cells (set at 100% at the initiation of efflux) and plotted against the time of efflux in minutes and/or as the ln % of ^125 I- remaining in the cells, plotted against the time of efflux in minutes. Expressing the data in the latter form facilitates calculation of the apparent rate constant for ^125 I- efflux using the equation r=[ln (R1)-ln (R2)]/(t1-t2) where R1 and R2 are the percent of counts remaining in the cell layer at times t1 and t2 respectively.

CFPAC-1 cells = assay: 125I- efflux assay, CFPAC-1 cells; type: cell-based, human
Excerpt: as §2, §3, §4

2CFSMEo- = assay: 125I- efflux assay, airway epithelial cell line of a CF patient; type: cell-based, human; settings: 2CFSMEo- cells
Excerpt: as §2
as §3, with “This replacement procedure was carried out 2-5 times before addition of the appropriate surfactant and/or agonist in 1 ml of the same medium to one culture dish (experimental) while to another dish 1 ml of medium without surfactant and/or agonist was added (control). Medium with or without surfactant and/or agonist was replaced at 0.5 minute intervals until the 10 minute time point when the replacement time was prolonged to 1 minute intervals.” left out
(§5) The data is expressed as ^125 I- remaining in the cells (set at 100% at the initiation of efflux) and plotted against the time of efflux in minutes and/or as the ln % of ^125 I- remaining in the cells, plotted against the time of efflux in minutes. […]

[2] = Effective dosage (general statement); type: cell-based; settings: maltoside with alkyl chain of 12, 13 or 14 carbon atoms
PLJ-CFPAC-10 = assay: 125I- efflux assay, CFPAC-1 cells transduced with vector lacking CFTR cDNA; type: cell-based, human
Excerpt: as §2
as §3, with “This replacement procedure was carried out 2-5 times before addition of the appropriate surfactant and/or agonist in 1 ml of the same medium to one culture dish (experimental) while to another dish 1 ml of medium without surfactant and/or agonist was added (control). Medium with or without surfactant and/or agonist was replaced at 0.5 minute intervals until the 10 minute time point when the replacement time was prolonged to 1 minute intervals.” left out
as §5

PLJ-CFTR-CFPAC-10 = assay: 125I- efflux assay, CFPAC-1 cells transduced with wild-type CFTR cDNA; type: cell-based, human; settings: vector containing wild-type CFTR cDNA (PLJ-CFTR-CFPAC-10)
Excerpt: as §2
as §3, with “This replacement procedure was carried out 2-5 times before addition of the appropriate surfactant and/or agonist in 1 ml of the same medium to one culture dish (experimental) while to another dish 1 ml of medium without surfactant and/or agonist was added (control). Medium with or without surfactant and/or agonist was replaced at 0.5 minute intervals until the 10 minute time point when the replacement time was prolonged to 1 minute intervals.” left out
as §5

T84 cells [3] = settings: human
CFPAC-1 = settings: CFPAC-1, homozygous ΔF508; cited from earlier work
CF cells = assay: 125I- efflux / Cl- channel opening in CF cells; type: cell-based
Protocol: as §1
In general, cells were washed with 1 ml of efflux medium (140 mM NaCl, 1 mM Ca gluconate, 1 mM Mg gluconate, 5 mM KH2 PO4, 10 mM Tris-Hepes pH 7.4) four times and incubated with ^125 I- (3μl Na ^125 I=12 μC) in 1 ml of the same medium containing 5 mM D-glucose for 1 hour at 37° C. to load the cells with ^125 I. The cells were then washed quickly five times with 1 ml of the efflux medium at 22° C. to remove any ^125 I- that had not been taken up by the cells. […] The samples of the replacement media were counted in a gamma counter to determine the amount of ^125 I- effluxing from the cells into the medium in each time interval. After 15 minutes when measurement of efflux was completed the cells were extracted for 30 minutes with 1 ml 0.2N NaOH, 0.15% SDS and the extract counted to determine the residual ^125 I- remaining in the cells.

CFTR in T84 cells = settings: cited from earlier work
T84 cells [4] = settings: comparison statement; cited from earlier work

Molecule: CCCCCCCCCCCCCCO[C@@H]1O[C@H](CO)[C@@H](O[C@@H]2O[C@@H](CO)[C@H](O)[C@@H](O)[C@@H]2O)[C@H](O)[C@H]1O (stereo in doubt) [tetra DM, tetradecylmaltoside]
- potency as Cl- channel activator among alkylmaltosides tested (T84 cells [1]): most potent
- cause of 125I- efflux stimulation: cell lysis (T84 cells [1]; T84 cells): not due to lysis of the cells
- potency change on lengthening alkyl chain, DM as reference standard (T84 cells [1]; T84 cells): markedly increases the potency
- stimulation of 125I- efflux, dose dependence (T84 cells [1]; T84 cells, 10-100 μM): dose-dependent stimulation
- potency in stimulating 125I- efflux relative to DM (T84 cells [1]; T84 cells): more potent than DM
- increase in 125I- efflux, dose dependence (CFPAC-1 cells): dose-dependent increase
- stimulation of 125I- efflux, dose dependence (2CFSMEo-): dose-dependent stimulation
- effective dosage [2]: 10 to 400 µM
- Cl- channel activity as measured by increased 125I- efflux (PLJ-CFPAC-10): stimulate
- Cl- channel activity as measured by increased 125I- efflux (PLJ-CFTR-CFPAC-10): stimulate

Molecule: CCCCCCCCCCCCCO[C@@H]1O[C@H](CO)[C@@H](OC2OC(CO)C(O)C(O)C2O)[C@H](O)[C@H]1O (stereo in doubt) [tri DM, tridecylmaltoside]
- potency as Cl- channel activator among alkylmaltosides tested (T84 cells [1]): most potent
- cause of 125I- efflux stimulation: cell lysis (T84 cells [1]; T84 cells): not due to lysis of the cells
- potency change on lengthening alkyl chain, DM as reference standard (T84 cells [1]; T84 cells): markedly increases the potency
- stimulation of 125I- efflux, dose dependence (T84 cells [1]; T84 cells, 10-100 μM): dose-dependent stimulation
- potency in stimulating 125I- efflux relative to DM (T84 cells [1]; T84 cells): more potent than DM
- increase in 125I- efflux, dose dependence (CFPAC-1 cells): dose-dependent increase
- stimulation of 125I- efflux, dose dependence (2CFSMEo-): dose-dependent stimulation
- effective dosage [2]: 10 to 400 µM
- Cl- channel activity as measured by increased 125I- efflux (PLJ-CFPAC-10): stimulate
- Cl- channel activity as measured by increased 125I- efflux (PLJ-CFTR-CFPAC-10): stimulate

Molecule: CCCCCCCCCCCCO[C@@H]1O[C@H](CO)[C@@H](O)[C@H](O)[C@H]1O [DG, dodecylglucoside]
- activity as Cl- channel activator on altering saccharide moiety, compared to DM at 100 μM (T84 cells [1]; T84 cells): markedly reduces the activity
- effect in stimulating 125I- efflux (T84 cells [1]; T84 cells, 100 μM): minimal effect

Molecule: CCCCCCCCCCCCO[C@@H]1O[C@H](CO)[C@@H](O[C@H]2O[C@H](CO)[C@@H](O)[C@H](O)[C@H]2O)[C@H](O)[C@H]1O [DM, dodecylmaltoside]
- cause of 125I- efflux stimulation: cell lysis (T84 cells [1]; T84 cells): not due to lysis of the cells
- reversibility of response upon removal of the agent (T84 cells [1]; T84 cells): reversible
- rate of 125I- efflux during exposure, compared to control rate (T84 cells [1]; T84 cells, 100 μM or 200 μM DM): increased rate
- rate of 125I- efflux with DM remaining during efflux phase after preincubation, compared to same concentration without preincubation (T84 cells [1]; T84 cells, 100 μM or 200 μM DM): comparable
- rate of 125I- efflux after removal of agent (T84 cells [1]; T84 cells, 100 μM or 200 μM DM, after 2 min exposure): reverts to the control rate
- stimulation of 125I- efflux, dose dependence (T84 cells [1]; T84 cells, 10-400 μM): dose-dependent stimulation
- rate of 125I- efflux on further exposure to forskolin in presence of DM (T84 cells [1]; T84 cells, 80-100 μM DM plus 20 μM forskolin): additional increase
- effective dosage [2]: 10 to 400 µM
- Cl- channel activity as measured by increased 125I- efflux (PLJ-CFPAC-10): stimulate
- Cl- channel activity as measured by increased 125I- efflux (PLJ-CFTR-CFPAC-10): stimulate
- MNTC (T84 cells [3]): < 150 µM

Molecule: C[C@@H]1CC[C@@]2(OC1)O[C@H]1[C@@H](O)[C@H]3[C@@H]4CC[C@H]5C[C@@H](O[C@@H]6O[C@H](CO)[C@H](O[C@@H]7O[C@H](CO)[C@@H](O)[C@H](O[C@@H]8OC[C@@H](O)[C@H](O)[C@H]8O)[C@H]7O[C@@H]7O[C@H](CO)[C@H](O)[C@H](O[C@@H]8O[C@H](CO)[C@@H](O)[C@H](O)[C@H]8O)[C@H]7O)[C@H](O)[C@H]6O)[C@H](O)C[C@]5(C)[C@H]4CC[C@]3(C)[C@H]1[C@@H]2C [Digitonin, digitonin, reference compound]
- stimulation of 125I- efflux (T84 cells [1]; T84 cells, 50 μM): pronounced effect

Molecule: C[S+](C)[O-] [Dimethylsulfoxide (DMSO), Dimethylsulfoxide, reference compound]
- effect in stimulating 125I- efflux (T84 cells [1]; T84 cells, 17.6 mM): no effect

Molecule: O=C(O)c1cc([N+](=O)[O-])ccc1NCCCc1ccccc1 [NPPB, reference compound]
- 125I- efflux inhibition (T84 cells [1]; T84 cells, blocker of some Cl- channels): inhibits
- blocking of Cl- channels (2CFSMEo-): blocked

Molecule: C=C[C@@]1(C)CC(=O)[C@]2(O)[C@@]3(C)[C@@H](O)CCC(C)(C)[C@@H]3[C@H](O)[C@H](OC(C)=O)[C@@]2(C)O1 [forskolin]
- stimulation of 125I- efflux (T84 cells [1]; T84 cells, 20 μM forskolin): stimulation
- activation of the Cl- channel (CFPAC-1): inability of the channel to be activated
- response in 125I- efflux assay (CFPAC-1 cells): unresponsive
- 125I- efflux in response to agonist (CF cells): not stimulated
- activation of CFTR (CFTR in T84 cells): activate CFTR in T84 cells

Molecule: C[C@H](CCC(=O)O)C[C@H](C)C[C@H](C)C(=O)/C=C(\O)[C@H](C)C[C@H](C)C/C=C/[C@@H](C)[C@@H](O)[C@@H](C)[C@@H](O)C[C@@H]1CC[C@@](C)([C@H]2CC[C@@](C)([C@@H](C)O)O2)O1 [ionomycin, reference compound]
- stimulation of 125I- efflux (T84 cells [1]; T84 cells, 1 μM ionomycin): stimulation
- response in 125I- efflux assay (CFPAC-1 cells): responds briskly
- Opening of Ca++-regulated Cl- channels (CF cells): opened

Molecule: CCCCCCCCO[C@@H]1O[C@H](CO)[C@@H](O)[C@H](O)[C@H]1O [octylglucoside]
- concentration at which an appreciable effect in stimulating 125I- efflux is shown (T84 cells [1]; T84 cells): ≥ 500 µM
- potency relative to DM, tri DM and tetra DM (T84 cells [1]; T84 cells): less potent than DM, tri DM and tetra DM
- stimulation of 125I- efflux (T84 cells [1]; T84 cells): stimulate

Molecule: CCCCCCCCCCCCOS(=O)(=O)[O-].[Na+] [sodium dodecyl sulfate (SDS), sodium dodecyl sulfate]
- release upon cell lysis (T84 cells [4]): precipitous release

Molecule: dodecylsucrose [DS]
- activity as Cl- channel activator on altering saccharide moiety, compared to DM at 100 μM (T84 cells [1]; T84 cells): markedly reduces the activity
- potency relative to DM, tri DM and tetra DM (T84 cells [1]; T84 cells): less potent than DM, tri DM and tetra DM
- stimulation of 125I- efflux (T84 cells [1]; T84 cells): stimulate
- effect on 125I- efflux relative to DM at 100 μM (T84 cells [1]; T84 cells, 100 μM): significantly smaller effect than DM
